Assay results reported in patent publication US20240423949A1, “APPLICATION OF SALVIANOLIC ACID B IN PREPARING ANTI-ROTAVIRUS PREPARATION” (GUANGDONG MEDICAL UNIVERSITY, priority 2023, published 2024).

How the values were obtained:
Wa strain rotavirus [1] = assay: Anti-RV biosynthesis effect in MA104 cells (drug after virus, MTT assay); format: cell-based; details: 64-256 μM, 100 TCID50, 72 h
Description: 100 TCID50 virus solution (virus with 20 μg/mL trypsin at 37° C. for 30 min) was added to a 96-well culture plate of MA104 cells grown to monolayers, with 100 μL per well, and the cells were rinsed twice with PBS before addition. A normal cell control group was set, an equal volume of DMEM culture solution was added, then the 96-well plate was placed in a 5% CO2 incubator at 37° C. for incubation for 2 h, the virus solution was aspirated, different concentrations of salvianolic acid B and ribavirin were added, respectively, with 100 μL per well, and a virus control group was set and added with only a maintenance solution, with 100 μL per well. The 96-well plate was placed in a 5% CO2 incubator at 37° C. for incubation and continuous observation for 72 h and then detected by the MTT assay. A 1/10 volume of MTT solution was added to each well. After being incubated for 3-4 h in the incubator, the 96-well plate was removed, the culture solution in the well was carefully aspirated, and 150 μL of DMSO was added to each well. The plate was shaken at a low speed for 10 min on a shaker to fully dissolve the crystal, and the absorbance was detected and recorded at a wavelength of 490 nm. The drug-to-virus inhibition rates were calculated and the experiment was repeated 3 times. […]

[2] = tested on: RV structural protein VP6 gene expression; assay: Gene expression level of RV structural protein VP6 in RV infected MA104 cells (real time PCR); format: cell-based, rotavirus
Description: (1) In order to further verify whether salvianolic acid B has an inhibitory effect on RV synthesis, a drug group (MA104 cells after RV infection were treated with different concentrations of salvianolic acid B), a ribavirin group, a normal group, and an RV group were set up. The supernatant was removed and PBS rinse was performed twice. 1 mL of Trizol reagent was added to each well and allowed to stand for 5 minutes. After blowing the cells with a gun tip, they were collected in a 1.5 mL enzyme free EP tube. 200 μL of chloroform was add to the tube. After 15 seconds of vortex shock, the tube was placed at room temperature for 5 min, and centrifuged (4° C., 12000 r/min for 15 min). The centrifuged sample was divided into three layers, namely, the colorless upper layer, the white middle layer and the red lower layer. […]
Real time quantitative PCR was performed using SYBR Green I fluorescence labeling to detect the expression levels of VP6 in the drug group, ribavirin group, normal group, and RV group, SYBR® Premix Pro Taq HS qPCR Kit II reagent kit was adopted, and GAPDH was selected as an internal reference. In the experiment, a real-time fluorescent quantitative PCR amplification reaction system was prepared according to the following table with a dedicated Real-time PCR plate of Axygen, and the reaction solution was prepared on ice (the total reaction was is 10 μL).

MA104 cells = assay: Toxicity of salvianolic acid B on MA104 cells (MTT assay); format: cell-based, Rhesus monkey; details: 72 h; for Toxicity to MA104 cells: concentration range 0-256 μM
Description: When the MA104 cells grew to monolayers, the cells were digested, centrifuged and resuspended, and the suspension was further diluted and then 10 μL was taken and counted on a blood cell counting plate, and the required cell volume was calculated. Cell plating was then performed in a 96-well plate with 100 μL of the cell suspension per well at a cell density of 8×10^4 per mL. Cells grown to monolayers were treated with different concentrations of salvianolic acid B for 72 h, and the toxicity of salvianolic acid B on MA104 cells was detected by MTT assay. 10 μL of MTT solution was added to each well, and the mixture was incubated in the incubator for 3-4 h. Then, the 96-well plate was taken out, and the culture solution in the well was carefully aspirated from the wells. 150 μL of DMSO was added to each well, and the mixture was shaken at a low speed for 10 min on a shaker to fully dissolve the crystal, and the absorbance was detected and recorded at a wavelength of 490 nm.
The formula for the relative cell survival rate is:
Cell survival rate={(Aexperimental group−Ablank)/(Acontrol group−Ablank)×100%}

Wa strain rotavirus [3] = assay: Direct inhibitory effect on RV (drug pre-mixed with virus, MA104 cells, MTT assay); format: cell-based
Description: Different concentrations of salvianolic acid B solution with 50TCID50 virus solution (virus with 20 μg/mL trypsin at 37° C. for 30 min), DMEM with 50TCID50 virus solution, ribavirin with 50TCID50 virus solution were mixed in equal volumes and incubated in a 5% CO2 incubator at 37° C. for 2 hours. The cells were rinsed twice with PBS and added to a 96-well culture plate of MA104 cells grown to monolayers, and for the normal cell control group, an equal volume of DMEM was added. After incubated at 37° C. and 5% CO2 for 2 h, the mixed solution was aspirated and the maintenance solution was added, with 100 μL per well. The 96-well plate was placed in a 5% CO2 incubator at 37° C. for continuous observation for 72 h and then detected by the MTT assay. A 1/10 volume of MTT solution was added to each well. After incubated for 3-4 h in the incubator, the 96-well plate was removed, the culture solution in the well was carefully aspirated, and 150 µL of DMSO was added to each well. The plate was shaken at a low speed for 10 min on a shaker to fully dissolve the crystal, and the absorbance was detected and recorded at a wavelength of 490 nm. The drug-to-virus inhibition rates were calculated and the experiment was repeated 3 times.
Virus inhibition rate (%)=(average A value of drug group−average A value of virus control group)/(average A value of normal cell control group−average A value of virus control group)×100%

Wa strain rotavirus [4] = assay: Anti-RV adsorption effect in MA104 cells (drug before virus, MTT assay); format: cell-based; details: 16-256 μM
Description: Salvianolic acid B solutions of different concentrations were added into a 96-well culture plate of MA104 cells grown into monolayers, wherein 4 wells were repeated for each concentration of the solution, with 100 μL per well. An equal volume of ribavirin was added to the positive control group, and only an equal volume of DMEM culture solution was added to both the normal cell control group and the virus control group, and same were placed in a 5% CO2 incubator at 37° C. for incubation for 2 h. […] 1/10 volume of MTT solution was added to each well, after being incubated for 3-4 h in the incubator, the 96-well plate was taken out, the culture solution in the well was carefully aspirated, 150 uL of DMSO was added to each well, and same was placed on a shaker and shaken at a low speed for 10 min, so that the crystal was fully dissolved; and the absorbance was detected and recorded at a wavelength of 490 nm. The drug-to-virus inhibition rates were calculated and the experiment was repeated 3 times. […]

SMILES	Virus inhibition rate (anti-RV biosynthesis) (Wa strain rotavirus [1])	Expression level of VP6 compared with the RV group ([2]; 64, 128 and 256 μM, dose-response correlation)	Cell survival rate (MA104 cells; 512 μM, MA104 cells)	Toxicity to MA104 cells (MA104 cells)	Toxicity to MA104 cells (MA104 cells; listed as Salvianolic acid B)	Direct inhibitory effect on RV (conclusion) (Wa strain rotavirus [3]; 16-256 μM)	inhibition at 16 µM (Wa strain rotavirus [3]; Rotavirus, MA104, 16 μM (first of five values over 16-256 μM), 50TCID50, 72 h, read-out: Inhibitory rate directly inhibiting RV) [%]	inhibition at 32 µM (Wa strain rotavirus [3]; Rotavirus, MA104, 32 μM (second of five values over 16-256 μM), 50TCID50, 72 h, read-out: Inhibitory rate directly inhibiting RV) [%]	inhibition at 64 µM (Wa strain rotavirus [3]; Rotavirus, MA104, 64 μM (third of five values over 16-256 μM), 50TCID50, 72 h, read-out: Inhibitory rate directly inhibiting RV) [%]	inhibition at 128 µM (Wa strain rotavirus [3]; Rotavirus, MA104, 128 μM (fourth of five values over 16-256 μM), 50TCID50, 72 h, read-out: Inhibitory rate directly inhibiting RV) [%]	inhibition at 256 µM (Wa strain rotavirus [3]; Rotavirus, MA104, 256 μM (fifth of five values over 16-256 μM), 50TCID50, 72 h, read-out: Inhibitory rate directly inhibiting RV) [%]	Anti-RV adsorption effect (conclusion) (Wa strain rotavirus [4])	Virus inhibition rate (anti-RV adsorption) (Wa strain rotavirus [4]; 100TCID50, 72 h)	Gene expression of VP6 compared to the RV group ([2]; ribavirin group)
O=C(/C=C/c1ccc(O)c2c1[C@@H](C(=O)O[C@H](Cc1ccc(O)c(O)c1)C(=O)O)[C@H](c1ccc(O)c(O)c1)O2)O[C@H](Cc1ccc(O)c(O)c1)C(=O)O [salvianolic acid B, Salvianolic acid B]	higher than 50%	significantly reduced	below 95%	no obvious toxicity	no drug toxicity	no direct inhibitory effect	14.2	15.2	16.5	15.8	12.7	no significant anti-RV adsorption effect	below 50%	–
NC(=O)c1ncn([C@@H]2O[C@H](CO)[C@@H](O)[C@H]2O)n1 [ribavirin, reference compound]	–	–	–	–	–	–	–	–	–	–	–	–	–	significantly reduced
